Results: patent US20230365530A1, “QUINAZOLINE-2,4-DIAMINE DERIVATIVE AND PHARMACEUTICAL COMPOSITION FOR PREVENTING OR TREATING CANCER COMPRISING SAME AS ACTIVE INGREDIENT” (THE ASEAN FOUNDATION, priority 2020, published 2023)

What follows are compounds tested against EHMT2 (Euchromatic histone-lysine N-methyltransferase 2) (Homo sapiens (Human), UniProt Q96KQ7) (assay: EHMT2 enzyme inhibition, LANCE TR-FRET). Details: histone H3 peptide, 1 hour at room temperature.
Format: biochemical
Description: In order to analyze the enzyme inhibitory efficacy of the compounds of Examples 1 to 89, EHMT2 (Euchromatic histone-lysine N-methyltransferase 2) enzyme activity was measured using the LANCE TR-FRET™ analysis method of Perkin Elmer. When the EHMT2 enzyme is activated, the 9th lysine residue of the biotinylated-histone peptide is methylated and the EU-conjugated antibody is combined to the methylated histone peptide. Then, when the complex is irradiated with light of excitation wavelength, the complex emits light having a wavelength of 665 nm through FRET phenomenon. Accordingly, fluorescence was measured, and IC50 values were calculated through a software to evaluate the EHMT2 enzyme activity inhibitory effect of the compounds of Examples 1 to 89.
Specific experimental methods are as follows. First, the compounds of Examples 1 to 89 of 1 nM to 100 μM (4× conc.) were put into a 384 well plate (25 μL/well), and 2 μM EEMT2/G9a enzyme (4× conc.) was put into the 384 well plate (25 μL/well). The plate was then centrifuged at 1,500 rpm for 5 seconds after sealing the plate with plate sealing foil. After incubating the EHMT2/G9a enzyme, SAM, and the compounds of Examples above at room temperature for 10 minutes, 2 μM histone H3 peptide (4× conc.) was added to the 384-well plate (25 μL/well). After sealing the plate with plate sealing foil and centrifuging at 1,500 rpm for 5 seconds, an enzymatic reaction was performed at room temperature for 1 hour. Upon completion of the enzyme reaction, 5 μL each of 200 nM Ulight™-Streptavidin (4× conc.) and 8 nM Eu-antibody (4× conc.) was added to each well of the plate. The plate was sealed with plate sealing foil, centrifuged at 1,500 rpm for 5 seconds and reacted at room temperature for 1 hour. The signal values were measured with Envision (Ex 320 nm, Em 665 nm), and all background values obtained by reacting without enzyme were deleted from the measured raw data values. Then, the EHMT2 enzyme activity inhibitory effect of the compounds of Examples 1 to 89 was converted into % values, and compared with the EHMT2 activity when treated with 4% DMSO vehicle (=0 nM compound) as 100%.

Sequence of EHMT2 (Euchromatic histone-lysine N-methyltransferase 2) (Q96KQ7 whole entry): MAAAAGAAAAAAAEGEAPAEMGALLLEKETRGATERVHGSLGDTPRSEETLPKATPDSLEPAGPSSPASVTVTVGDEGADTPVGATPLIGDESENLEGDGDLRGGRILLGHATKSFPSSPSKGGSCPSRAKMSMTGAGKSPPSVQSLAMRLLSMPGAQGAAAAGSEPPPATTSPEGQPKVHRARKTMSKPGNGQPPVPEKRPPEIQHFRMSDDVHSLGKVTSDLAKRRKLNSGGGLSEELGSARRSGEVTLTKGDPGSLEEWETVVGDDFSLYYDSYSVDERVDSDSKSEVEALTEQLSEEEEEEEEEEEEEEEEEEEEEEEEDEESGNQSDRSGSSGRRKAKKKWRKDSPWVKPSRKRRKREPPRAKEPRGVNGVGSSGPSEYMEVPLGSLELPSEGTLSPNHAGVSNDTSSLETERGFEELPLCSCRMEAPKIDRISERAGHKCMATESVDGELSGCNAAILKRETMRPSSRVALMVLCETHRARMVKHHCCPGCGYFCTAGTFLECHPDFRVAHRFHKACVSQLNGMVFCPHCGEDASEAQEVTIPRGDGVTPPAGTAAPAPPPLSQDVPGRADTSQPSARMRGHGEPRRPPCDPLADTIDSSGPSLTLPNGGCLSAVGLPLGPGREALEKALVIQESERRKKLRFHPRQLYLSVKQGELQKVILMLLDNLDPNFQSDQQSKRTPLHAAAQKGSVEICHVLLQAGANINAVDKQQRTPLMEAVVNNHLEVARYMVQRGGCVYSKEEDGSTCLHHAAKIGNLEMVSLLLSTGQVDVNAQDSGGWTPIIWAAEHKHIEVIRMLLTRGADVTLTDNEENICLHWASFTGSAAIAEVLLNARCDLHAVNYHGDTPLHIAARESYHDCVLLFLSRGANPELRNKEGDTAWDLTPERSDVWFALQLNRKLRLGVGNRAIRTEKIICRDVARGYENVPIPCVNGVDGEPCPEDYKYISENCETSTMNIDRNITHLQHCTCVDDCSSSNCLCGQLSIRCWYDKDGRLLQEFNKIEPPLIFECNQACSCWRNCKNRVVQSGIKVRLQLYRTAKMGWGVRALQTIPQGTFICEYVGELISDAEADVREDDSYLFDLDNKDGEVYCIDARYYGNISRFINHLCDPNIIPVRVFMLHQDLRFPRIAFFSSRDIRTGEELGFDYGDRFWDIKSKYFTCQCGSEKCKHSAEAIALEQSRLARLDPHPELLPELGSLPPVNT

IC50 [nM]	Compound
10000 to 100000	COc1cc2c(NC3CCN(C(C)C)CC3)nc(N3CCCCC3)nc2cc1C#CCCC(=O)N(C)C [Example 1, 5-(4-((1-isopropylpiperidine-4-yl)amino)-6-methoxy-2-(piperidine-1-yl)quinazoline-7-yl)-N,N-dimethylpentyne-4-amide]
10000 to 100000	COc1cc2c(NC3CCN(C(C)C)CC3)nc(N3CCCCC3)nc2cc1C#CCCC(=O)N1CCCC1 [Example 2, 5-(4-((1-isopropylpiperidine-4-yl)amino)-6-methoxy-2-(piperidine-1-yl)quinazoline-7-yl)-1-(pyrrolidine-1-yl)4-pentyne-1-one]
1000 to 10000	COc1cc2c(NC3CCN(C(C)C)CC3)nc(N3CCC(F)(F)CC3)nc2cc1C#CCCN(C)C [Example 4]
10000 to 100000	COc1cc2c(NC3CCN(C(C)C)CC3)nc(N3CCOCC3)nc2cc1C#CCCN(C)C [Example 5, 7-(4-(dimethylamino)-1-butyne-1-yl)-N-(1-isopropylpiperidine-4-yl)-6-methoxy-2-morpholinoquinazoline-4-amine]
< 100	COc1cc2c(NC3CCN(C(C)C)CC3)nc(N3CCCC3)nc2cc1C#CCCN(C)C [Example 6, 7-(4-(dimethylamino)-1-butyne-1-yl)-N-(1-isopropylpiperidine-4-yl)-6-methoxy-2-(pyrrolidine-1-yl)quinazoline-4-amine]
100 to 1000	COc1cc2c(NC3CCN(C(C)C)CC3)nc(N3CCN(C)CC3)nc2cc1C#CCCN(C)C [Example 7, 7-(4-(dimethylamino)-1-butyne-1-yl)-N-(1-isopropylpiperidine-4-yl)-6-methoxy-2-(4-methylpiperazine-1-yl)quinazoline-4-amine]
< 100	COc1cc2c(NC3CCN(C(C)C)CC3)nc(N3CCCCCC3)nc2cc1C#CCCN(C)C [Example 8, 2-(azepane-1-yl)-7-(4-(dimethylamino)-1-butyne-1-yl)-N-(1-isopropylpiperidine-4-yl)-6-methoxyquinazoline-4-amine]
< 100	COc1cc2c(NC3CCN(C(C)C)CC3)nc(N3CCC4(CCCC4)C3)nc2cc1C#CCCN(C)C [Example 9]
100 to 1000	COc1cc2c(NC3CCN(C(C)C)CC3)nc(N3C[C@@H]4C[C@@H]4[C@@H]3CO)nc2cc1C#CCCN(C)C [Example 10, ((1S,2R,5R)-3-(7-(4-(dimethylamino)-1-butyne-1-yl)-4-((1-isopropylpiperidine-4-yl)amino)-6-methoxyquinazoline-2-yl)-3-azabicyclo[3.1.0]hexane-2-yl)methanol]
1000 to 10000	COc1cc2c(NC3CCN(C(C)C)CC3)nc(N3CCC(N(C)C)CC3)nc2cc1C#CCCN(C)C [Example 11, 7-(4-(dimethylamino)-1-butyne-1-yl)-2-(4-(dimethylamino)piperidine-1-yl)-N-(1-isopropylpiperidine-4-yl)-6-methoxyquinazoline-4-amine]
< 100	COc1cc2c(NC3CCN(C(C)C)CC3)nc(N3CCCCC3)nc2cc1C#CCCN1CCCCC1 [Example 12, N-(1-isopropylpiperidine-4-yl)-6-methoxy-2-(piperidine-1-yl)-7-(4-(piperidine-1-yl)-1-butyne-1-yl)quinazoline-4-amine]
1000 to 10000	CCN(CC)CCC#Cc1cc2nc(N3CCCCC3)nc(NC3CCN(C(C)C)CC3)c2cc1OC [Example 13, 7-(4-(diethylamino)-1-butyne-1-yl)-N-(1-isopropylpiperidine-4-yl)-6-methoxy-2-(piperidine-1-yl)quinazoline-4-amine]
1000 to 10000	COc1cc2c(NC3CCN(C(C)C)CC3)nc(N3CCCCC3)nc2cc1C#CCCN1CCC(C)CC1 [Example 15, N-(1-isopropylpiperidine-4-yl)-6-methoxy-7-(4-(4-methylpiperidine-1-yl)-1-butyne-1-yl)-2-(piperidine-1-yl)quinazoline-4-amine]
< 100	COc1cc2c(NC3CCN(C(C)C)CC3)nc(N3CCCCC3)nc2cc1C#CCCN1CCCC1 [Example 16, N-(1-isopropylpiperidine-4-yl)-6-methoxy-2-(piperidine-1-yl)-7-(4-(pyrrolidine-1-yl)-1-butyne-1-yl)quinazoline-4-amine]
< 100	COc1cc2c(NC3CCN(C(C)C)CC3)nc(N3CCCN(C)CC3)nc2cc1C#CCCN(C)C [Example 17, 7-(4-(dimethylamino)-1-butyne-1-yl)-N-(1-isopropylpiperidine-4-yl)-6-methoxy-2-(4-methyl-1,4-diazepane-1-yl)quinazoline-4-amine]
1000 to 10000	COc1cc2c(NC3CCN(Cc4ccccc4)CC3)nc(N3CCCCC3)nc2cc1C#CCCN(C)C [Example 18, N-(1-benzylpiperidine-4-yl)-7-(4-(dimethylamino)-1-butyne-1-yl)-6-methoxy-2-(piperidine-1-yl)quinazoline-4-amine]
10000 to 100000	COc1cc2c(N[C@@H]3CCCN(Cc4ccccc4)C3)nc(N3CCCCC3)nc2cc1C#CCCN(C)C [Example 19, (R)-N-(1-benzylpiperidine-3-yl)-7-(4-(dimethylamino)-1-butyne-1-yl)-6-methoxy-2-(piperidine-1-yl)quinazoline-4-amine]
1000 to 10000	COc1cc2c(NCCN3CCCC3)nc(N3CCCCC3)nc2cc1C#CCCN(C)C [Example 20, 7-(4-(dimethylamino)-1-butyne-1-yl)-6-methoxy-2-(piperidine-1-yl)-N-(2-(pyrrolidine-1-yl)ethyl)quinazoline-4-amine]
100 to 1000	COc1cc2c(NCCCN(C)C)nc(N3CCCCC3)nc2cc1C#CCCN(C)C [Example 21, N1-(7-(4-(dimethylamino)-1-butyne-1-yl)-6-methoxy-2-(piperidine-1-yl)quinazoline-4-yl)-N3,N3-dimethylpropane-1,3-diamine]
100 to 1000	COc1cc2c(NC3CCN(C)CC3)nc(N3CCCCC3)nc2cc1C#CCCN(C)C [Example 22, 7-(4-(dimethylamino)-1-butyne-1-yl)-6-methoxy-N-(1-methylpiperidine-4-yl)-2-(piperidine-1-yl)quinazoline-4-amine]
10000 to 100000	COc1cc2c(NC3CCCCC3)nc(N3CCCCC3)nc2cc1C#CCCN(C)C [Example 23, N-cyclohexyl-7-(4-(dimethylamino)-1-butyne-1-yl)-6-methoxy-2-(piperidine-1-yl)quinazoline-4-amine]
< 100	COc1cc2c(NC3CCN(C4CC4)CC3)nc(N3CCCCC3)nc2cc1C#CCCN(C)C [Example 24, N-(1-cyclopropylpiperidine-4-yl)-7-(4-(dimethylamino)-1-butyne-1-yl)-6-methoxy-2-(piperidine-1-yl)quinazoline-4-amine]
1000 to 10000	COc1cc2c(NC3CCN(c4ccccc4)CC3)nc(N3CCCCC3)nc2cc1C#CCCN(C)C [Example 25, 7-(4-(dimethylamino)-1-butyne-1-yl)-6-methoxy-N-(1-phenylpiperidine-4-yl)-2-(piperidine-1-yl)quinazoline-4-amine]
100 to 1000	COc1cc2c(NCc3cccnc3)nc(N3CCCCC3)nc2cc1C#CCCN(C)C [Example 26, 7-(4-(dimethylamino)-1-butyne-1-yl)-6-methoxy-2-(piperidine-1-yl)-N-(pyridine-3-ylmethyl)quinazoline-4-amine]
100 to 1000	COc1cc2c(NC3CC(C)(C)NC(C)(C)C3)nc(N3CCCCC3)nc2cc1C#CCCN(C)C [Example 27, 7-(4-(dimethylamino)-1-butyne-1-yl)-6-methoxy-2-(piperidine-1-yl)-N-(2,2,6,6,-tetramethylpiperidine-4-yl)quinazoline-4-amine]
